From patent US8338594B2, “Pyrrolotriazine derivatives useful for treating cancer through inhibition of aurora kinase” (Bayer HealthCare LLC, priority 2005, dated 2012) come the findings set out here.

Molecules are shown by their SMILES. Bounds are passed on as bounds.

The term IC50 denotes the midpoint of a concentration-inhibition curve. Read a low IC50 as greater potency.

The target in assay [1] is T1, murine Aurora Kinase 1 (mAur1) (Mus musculus, UniProt O70126).
T1 construct: recombinant, GST-tagged mAur 1 (amino acids 67-345) that was co-expressed with human INCENP; GST; made in house
T1 sequence (O70126 67-345): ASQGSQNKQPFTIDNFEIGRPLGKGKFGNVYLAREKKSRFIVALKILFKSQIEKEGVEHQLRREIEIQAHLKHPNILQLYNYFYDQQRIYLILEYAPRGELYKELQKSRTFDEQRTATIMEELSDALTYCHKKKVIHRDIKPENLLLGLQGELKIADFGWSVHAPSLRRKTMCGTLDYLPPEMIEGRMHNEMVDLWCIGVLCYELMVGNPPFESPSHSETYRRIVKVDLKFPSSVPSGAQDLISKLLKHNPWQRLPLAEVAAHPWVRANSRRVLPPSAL
T1 sequence (Q9NQS7 704-918 partner): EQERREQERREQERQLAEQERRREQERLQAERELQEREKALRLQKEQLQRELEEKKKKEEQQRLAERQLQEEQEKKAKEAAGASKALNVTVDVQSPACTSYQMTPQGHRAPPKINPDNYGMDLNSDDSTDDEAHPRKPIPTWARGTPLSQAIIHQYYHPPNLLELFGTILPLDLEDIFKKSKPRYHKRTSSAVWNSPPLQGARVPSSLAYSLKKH
The experiment in a line: murine Aurora Kinase 1 (mAur1) biochemical Scintillation Proximity Assay. Conditions: SPA, biotinylated Peptide 830, 1 μM ATP, 12 nM GST-tagged mAur 1 co-expressed with human INCENP. The procedure:
(§1) Using a Scintillation Proximity Assay (SPA) format, the murine Aurora Kinase 1 (mAur1) and murine Aurora Kinase 2 (mAur2) biochemical assay measures the ability of mAur2 to phosphorylate the substrate, biotinylated Peptide 830 (DRT, Protein Sciences). Once radiolabeled by the enzyme, the biotinylated substrate is captured on streptavidin-coated SPA beads and the radioactivity, in proximity to the SPA beads, is measured. For the generation of IC50 curves, the reaction was performed in 96-well isoplates (Wallac 1450-514) under the following conditions: a 10 mM stock solution of compound (in 100% dimethylsulfoxide; DMSO) was diluted 10 fold in 100% DMSO. Compounds were then serially diluted, 1:5, for an eight point dose curve, in 100% DMSO. A volume of 1 μL of the diluted compound was added to the reaction buffer that consisted of 25 mM HEPES pH 7.5, 1 mM MnCl2, 1 mM MgCl2, 1 mM DTT, 0.01% Tween20. A mixture with a final concentration per well of 1 μM cold ATP, 0.1 μCi ^33P-ATP (Amersham AH9968) and 1 μM biotinylated Peptide 830 was then added. The reaction was initiated with the addition of either recombinant, GST-tagged mAur 1 (amino acids 67-345) that was co-expressed with human INCENP (amino acids 704-919) (DRT, Protein Sciences) at a final concentration of 12 nM or N-terminal His-tagged mAur2 (amino acids 98-395; DRT, Protein Sciences) at a final concentration of 20 nM. The final reaction volume in each well was 100 μL and the final compound concentration ranged from 10 μM-[…] in 1% DMSO. The reaction mixture was allowed to incubate for 1-2 hours with gentle agitation at 25° C. To terminate the reaction, streptavidin-coated SPA beads (Amersham RPNQ0007; 50 μL of 0.5 mg beads dissolved in 165 mM EDTA) were then added to each well and incubation proceeded for an additional 15 minutes at 25° C. The plate was then centrifuged for ten minutes at 2000 rpm. Phosphorylation of the peptide substrate was measured using a Wallac 1450 Microbeta Plus Liquid Scintillation Counter.
On the technique in general: SPA uses beads or plates that emit light when radiolabelled molecules are held near them.

Assay [2] concerns the target T2, murine Aurora Kinase 2 (mAur2) (Mus musculus, UniProt P97477).
T2 construct: N-terminal His-tagged mAur2 (amino acids 98-395; DRT, Protein Sciences); His (N); made in house
T2 sequence (P97477 98-395): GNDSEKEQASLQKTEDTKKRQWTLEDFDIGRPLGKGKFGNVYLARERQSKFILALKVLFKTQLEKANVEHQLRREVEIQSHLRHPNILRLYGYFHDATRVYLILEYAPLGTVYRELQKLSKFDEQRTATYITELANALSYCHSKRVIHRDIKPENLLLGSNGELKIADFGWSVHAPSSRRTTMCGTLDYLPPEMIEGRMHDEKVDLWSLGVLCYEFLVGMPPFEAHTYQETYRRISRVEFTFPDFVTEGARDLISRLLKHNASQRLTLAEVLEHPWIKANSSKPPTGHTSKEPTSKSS
The experiment in a line: murine Aurora Kinase 2 (mAur2) biochemical Scintillation Proximity Assay. To be noted: SPA, biotinylated Peptide 830, 1 μM ATP, 20 nM His-tagged mAur2. The procedure: as §1

Regarding `Nc1ncnn2cc(C(=O)O)c(-c3ccc(Nc4nc5cc(F)cc(F)c5[nH]4)cc3)c12` [Example 71, 4-amino-5-{4-[(5,7-difluoro-1H-benzimidazol-2-yl)amino]phenyl}pyrrolo[2,1-f][1,2,4]triazine-6-carboxylic acid], the IC50 in assay [1] and in assay [2] was under 100 nM each time.
For the molecule `CCNC(=O)c1cn2ncnc(N)c2c1-c1ccc(Nc2nc3cc(F)cc(F)c3[nH]2)cc1` [Example 73, 4-amino-5-{4-[(5,7-difluoro-1H-benzimidazol-2-yl)amino]phenyl}-N-ethylpyrrolo[2,1-f][1,2,4]triazine-6-carboxamide], the IC50 in assay [1] and in assay [2] was under 100 nM each time.
`CN(C)C(=O)c1cn2ncnc(N)c2c1-c1ccc(Nc2nc3cc(F)cc(F)c3[nH]2)cc1` [Example 74, 4-amino-5-{4-[(5,7-difluoro-1H-benzimidazol-2-yl)amino]phenyl}-N,N-dimethylpyrrolo[2,1-f][1,2,4]triazine-6-carboxamide]: the concentration for half-maximal inhibition (IC50) in assay [1] and in assay [2] was under 100 nM in each case.
Regarding `COCCNC(=O)c1cn2ncnc(N)c2c1-c1ccc(Nc2nc3cc(F)cc(F)c3[nH]2)cc1` [Example 75, 4-amino-5-{4-[(5,7-difluoro-1H-benzimidazol-2-yl)amino]phenyl}-N-(2-methoxyethyl)pyrrolo[2,1-f][1,2,4]triazine-6-carboxamide], the concentration for half-maximal inhibition (IC50) in assay [1] and in assay [2] was under 100 nM in each case.
`Nc1ncnn2cc(C(=O)N3CCOCC3)c(-c3ccc(Nc4nc5cc(F)cc(F)c5[nH]4)cc3)c12` [Example 76, 5-{4-[(5,7-difluoro-1H-benzimidazol-2-yl)amino]phenyl}-6-(morpholin-4-ylcarbonyl)pyrrolo[2,1-f][1,2,4]triazin-4-amine]: the IC50 in assay [1] and in assay [2] was under 100 nM in each case.
Turning to `Nc1ncnn2cc(C(=O)NCC3CC3)c(-c3ccc(Nc4nc5cc(F)cc(F)c5[nH]4)cc3)c12` [Example 80, 4-amino-N-(cyclopropylmethyl)-5-{4-[(5,7-difluoro-1H-benzimidazol-2-yl)amino]phenyl}pyrrolo[2,1-f][1,2,4]triazine-6-carboxamide], the half-maximal inhibitory concentration (IC50) in assay [1] and in assay [2] was under 100 nM throughout.
`NC(=O)C1CCN(C(=O)c2cn3ncnc(N)c3c2-c2ccc(Nc3nc4cc(F)cc(F)c4[nH]3)cc2)CC1` [Example 81, 1-[(4-amino-5-{4-[(5,7-difluoro-1H-benzimidazol-2-yl)amino]phenyl}pyrrolo[2,1-f][1,2,4]triazin-6-yl)carbonyl]piperidine-4-carboxamide]: the 50% inhibitory concentration (IC50) in assay [1] and in assay [2] was under 100 nM each time.
As for `Nc1ncnn2cc(C(=O)NC3CCCC3)c(-c3ccc(Nc4nc5cc(F)cc(F)c5[nH]4)cc3)c12` [Example 85, 4-amino-N-cyclopentyl-5-{4-[(5,7-difluoro-1H-benzimidazol-2-yl)amino]phenyl}pyrrolo[2,1-f][1,2,4]triazine-6-carboxamide], the concentration for half-maximal inhibition (IC50) in assay [1] and in assay [2] was under 100 nM throughout.
For `CCN(C)C(=O)c1cn2ncnc(N)c2c1-c1ccc(Nc2nc3cc(F)cc(F)c3[nH]2)cc1` [Example 89, 4-amino-5-{4-[(5,7-difluoro-1H-benzimidazol-2-yl)amino]phenyl}-N-ethyl-N-methylpyrrolo[2,1-f][1,2,4]triazine-6-carboxamide], the IC50 in assay [1] and in assay [2] was under 100 nM throughout.
Turning to `CCN(C(=O)c1cn2ncnc(N)c2c1-c1ccc(Nc2nc3cc(F)cc(F)c3[nH]2)cc1)C(C)C` [Example 90, 4-amino-5-{4-[(5,7-difluoro-1H-benzimidazol-2-yl)amino]phenyl}-N-ethyl-N-isopropylpyrrolo[2,1-f][1,2,4]triazine-6-carboxamide], the IC50 in assay [1] and in assay [2] was under 100 nM throughout.
For the molecule `COCC1CCCN1C(=O)c1cn2ncnc(N)c2c1-c1ccc(Nc2nc3cc(F)cc(F)c3[nH]2)cc1` (stereo not shown) [Example 91, 5-{4-[(5,7-difluoro-1H-benzimidazol-2-yl)amino]phenyl}-6-{[2-(methoxymethyl)pyrrolidin-1-yl]carbonyl}pyrrolo[2,1-f][1,2,4]triazin-4-amine], the IC50 in assay [1] and in assay [2] was under 100 nM each time.
As for `CC(C)N(C)C(=O)c1cn2ncnc(N)c2c1-c1ccc(Nc2nc3cc(F)cc(F)c3[nH]2)cc1` [Example 92, 4-amino-5-{4-[(5,7-difluoro-1H-benzimidazol-2-yl)amino]phenyl}-N-isopropyl-N-methylpyrrolo[2,1-f][1,2,4]triazine-6-carboxamide], the concentration for half-maximal inhibition (IC50) in assay [1] and in assay [2] was under 100 nM in each case.
Take `CCCN(C)C(=O)c1cn2ncnc(N)c2c1-c1ccc(Nc2nc3cc(F)cc(F)c3[nH]2)cc1` [Example 93, 4-amino-5-{4-[(5,7-difluoro-1H-benzimidazol-2-yl)amino]phenyl}-N-methyl-N-propylpyrrolo[2,1-f][1,2,4]triazine-6-carboxamide]: the IC50 in assay [1] and in assay [2] was under 100 nM throughout.
For `Nc1ncnn2cc(C(=O)N3CCCC3)c(-c3ccc(Nc4nc5cc(F)cc(F)c5[nH]4)cc3)c12` [Example 96, 5-{4-[(5,7-difluoro-1H-benzimidazol-2-yl)amino]phenyl}-6-(pyrrolidin-1-ylcarbonyl)pyrrolo[2,1-f][1,2,4]triazin-4-amine], the IC50 in assay [1] and in assay [2] was under 100 nM throughout.
Take `Nc1ncnn2cc(C(=O)O)c(-c3ccc(Nc4nc5ccc(Oc6ccccc6)c(F)c5[nH]4)cc3)c12` [Example 101, 4-amino-5-{4-[(7-fluoro-6-phenoxy-1H-benzimidazol-2-yl)amino]phenyl}pyrrolo[2,1-f][1,2,4]triazine-6-carboxylic acid]: the concentration for half-maximal inhibition (IC50) in assay [1] and in assay [2] was under 100 nM in each case.
Turning to `Nc1ncnn2cc(C(=O)NC3CC3)c(-c3ccc(Nc4nc5ccc(Oc6ccccc6)c(F)c5[nH]4)cc3)c12` [Example 105, 4-amino-N-cyclopropyl-5-{4-[(7-fluoro-6-phenoxy-1H-benzimidazol-2-yl)amino]phenyl}pyrrolo[2,1-f][1,2,4]triazine-6-carboxamide], the IC50 in assay [1] and in assay [2] was under 100 nM throughout.
Consider `CCN(C)C(=O)c1cn2ncnc(N)c2c1-c1ccc(Nc2nc3ccc(Oc4ccccc4)c(F)c3[nH]2)cc1` [Example 106, 4-amino-N-ethyl-5-{4-[(7-fluoro-6-phenoxy-1H-benzimidazol-2-yl)amino]phenyl}-N-methylpyrrolo[2,1-f][1,2,4]triazine-6-carboxamide], for which the half-inhibitory concentration (IC50) in assay [1] and in assay [2] was under 100 nM throughout.
In the case of `Nc1ncnn2cc(C(=O)N3CCCCC3)c(-c3ccc(Nc4nc5ccc(Oc6ccccc6)c(F)c5[nH]4)cc3)c12` [Example 107, 5-{4-[(7-fluoro-6-phenoxy-1H-benzimidazol-2-yl)amino]phenyl}-6-(piperidin-1-ylcarbonyl)pyrrolo[2,1-f][1,2,4]triazin-4-amine], the half-maximal inhibitory concentration (IC50) in assay [1] and in assay [2] was under 100 nM each time.
With `Nc1ncnn2cc(C(=O)N3CCOCC3)c(-c3ccc(Nc4nc5ccc(Oc6ccccc6)c(F)c5[nH]4)cc3)c12` [Example 108, 5-{4-[(7-fluoro-6-phenoxy-1H-benzimidazol-2-yl)amino]phenyl}-6-(morpholin-4-ylcarbonyl)pyrrolo[2,1-f][1,2,4]triazin-4-amine], the IC50 in assay [1] and in assay [2] was under 100 nM throughout.
On to `COCCNC(=O)c1cn2ncnc(N)c2c1-c1ccc(Nc2nc3ccc(Oc4ccccc4)c(F)c3[nH]2)cc1` [Example 110, 4-amino-5-{4-[(7-fluoro-6-phenoxy-1H-benzimidazol-2-yl)amino]phenyl}-N-(2-methoxyethyl)pyrrolo[2,1-f][1,2,4]triazine-6-carboxamide], for which the 50% inhibitory concentration (IC50) in assay [1] and in assay [2] was under 100 nM throughout.
